Each compound was assayed against NK1 (Homo sapiens, UniProt P25103) (assay: Signal transduction (ST), intracellular Ca++ (FLIPR), NK1 antagonistic activity). Conditions: read-out: pIC50 NK1 (converted).
Assay type: cell-based
Experimental: (§1) This test evaluates in vitro functional NK1 antagonistic activity. For the measurements of intracellular Ca^++ concentrations the cells were grown on 96-well (black wall/transparent bottom) plates from Costar for 2 days until they reached confluence. The cells were loaded with 2 μM Fluo3 in DMEM containing 0.1% BSA and 2.5 mM probenecid for 1 h at 37° C. They were washed 3× with a Krebs buffer (140 mM NaCl, 1 mM MgCl2×6H2O, 5 mM KCl, 10 mM glucose, 5 mM HEPES; 1.25 mM CaCl2; pH 7.4) containing 2.5 mM probenecid and 0.1% BSA (Ca^++-buffer). The cells were preincubated with a concentration range of antagonists for 20 min at RT and Ca^++-signals after addition of the agonists were measured in a Fluorescence Image Plate Reader (FLIPR from Molecular Devices, Crawley, England). The peak of the Ca^++-transient was considered as the relevant signal and the mean values of corresponding wells were analysed as described below.
The sigmoidal dose response curves were analysed by computerised curve-fitting, using the GraphPad Program. […] For antagonist responses the IC50-value was calculated using non-linear regression. […]

NK1, sequence (P25103 whole entry): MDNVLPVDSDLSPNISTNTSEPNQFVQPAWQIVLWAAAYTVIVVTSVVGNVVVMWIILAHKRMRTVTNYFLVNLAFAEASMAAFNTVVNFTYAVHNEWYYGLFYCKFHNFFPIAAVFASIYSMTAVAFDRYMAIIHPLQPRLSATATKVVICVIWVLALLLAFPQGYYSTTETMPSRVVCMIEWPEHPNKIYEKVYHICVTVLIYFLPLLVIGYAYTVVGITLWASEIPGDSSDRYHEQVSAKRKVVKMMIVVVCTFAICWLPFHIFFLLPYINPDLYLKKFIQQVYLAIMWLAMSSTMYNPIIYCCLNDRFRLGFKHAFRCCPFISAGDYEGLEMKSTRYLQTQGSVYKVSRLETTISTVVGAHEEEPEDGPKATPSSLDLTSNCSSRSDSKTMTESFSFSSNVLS

SMILES	IC50 [nM]
O=C(c1cc(C(F)(F)F)cc(C(F)(F)F)c1)N1CC[C@H](N2CCN([C@H]3CCNC3)CC2)C[C@H]1Cc1ccccc1 [Compound 148]	63.1
O=C(c1cc(C(F)(F)F)cc(C(F)(F)F)c1)N1CCC(N2CCN(C3CCN(Cc4ccccc4)C3)CC2)CC1Cc1ccc(F)c(F)c1 (single isomer, unassigned) [Compound 223]	158
O=C(c1cnccn1)N1CCC(N2CCN(C3CCN(C(=O)c4cc(C(F)(F)F)cc(C(F)(F)F)c4)C(Cc4ccc(F)c(F)c4)C3)CC2)C1 (single isomer, unassigned) [Compound 237]	10
N#Cc1cccc(C(=O)N2CCC(N3CCN(C4CCN(C(=O)c5cc(C(F)(F)F)cc(C(F)(F)F)c5)C(Cc5ccccc5)C4)CC3)C2)c1 (single isomer, unassigned) [Compound 193]	7.94
O=C(c1cc(C(F)(F)F)cc(C(F)(F)F)c1)N1CCC(N2CCN(C3CCNC3)CC2)CC1Cc1ccc(Cl)c(Cl)c1 (centres unmarked) [Compound 244]	79.4
O=C(c1cc(C(F)(F)F)cc(C(F)(F)F)c1)N1CCC(N2CCN(C3CCNC3)CC2)CC1Cc1ccccc1 (centres unmarked) [Compound 2]	63.1
O=C(c1cc(C(F)(F)F)cc(C(F)(F)F)c1)N1CC[C@H](N2CCN([C@@H]3CCNC3)CC2)C[C@H]1Cc1ccccc1 [Compound 149]	39.8
CC(C)N/C(=C\[N+](=O)[O-])N1CCC(N2CCN(C3CCN(C(=O)c4cc(C(F)(F)F)cc(C(F)(F)F)c4)C(Cc4ccccc4)C3)CC2)C1 (centres unmarked) [Compound 354]	31.6
O=C(c1cc(C(F)(F)F)cc(C(F)(F)F)c1)N1CCC(N2CCN(C3CCNC3)CC2)CC1Cc1ccc(F)c(F)c1 (single isomer, unassigned) [Compound 225]	15.8
O=C(c1cc(C(F)(F)F)cc(C(F)(F)F)c1)N1CCC(N2CCN(C3CCN(CCCCO)C3)CC2)CC1Cc1ccc(Cl)c(Cl)c1 (centres unmarked) [Compound 393]	5.01
O=C(c1cc(C(F)(F)F)cc(C(F)(F)F)c1)N1CCC(N2CCN(C3CCN(Cc4ccccc4)C3)CC2)CC1Cc1ccccc1 (centres unmarked) [Compound 1]	100
O=C(c1c(Cl)cccc1Cl)N1CC[C@H](N2CCN([C@@H]3CCN(C(=O)c4cc(C(F)(F)F)cc(C(F)(F)F)c4)[C@@H](Cc4ccc(Cl)c(Cl)c4)C3)CC2)C1 [Compound 246]	126
Cc1nccn1CC(=O)N1CCC(N2CCN(C3CCN(C(=O)c4cc(C(F)(F)F)cc(C(F)(F)F)c4)C(Cc4ccccc4)C3)CC2)C1 (centres unmarked) [Compound 209]	20
CC(C)(C)C(=O)N1CC[C@H](N2CCN([C@@H]3CCN(C(=O)c4cc(C(F)(F)F)cc(C(F)(F)F)c4)[C@@H](Cc4ccc(Cl)c(Cl)c4)C3)CC2)C1 [Compound 247]	31.6
O=C(c1cc(C(F)(F)F)cc(C(F)(F)F)c1)N1CC[C@H](N2CCN(C3CCNC3)CC2)C[C@@H]1Cc1ccccc1 (some centres unmarked) [Compound 118]	126
O=C(c1cc(C(F)(F)F)cc(C(F)(F)F)c1)N1CCC(N2CCN(C3CCNC3)CC2)CC1Cc1ccc(F)c(F)c1 (single isomer, unassigned) [Compound 212]	50.1
Cc1cc(C)cc(C(=O)N2CC[C@H](N3CCN(C4CCN(C(=O)c5ccoc5)C4)CC3)C[C@H]2Cc2ccccc2)c1 (some centres unmarked) [Compound 85]	31.6
CN1CCN(C(C(=O)N2CCC(N3CCN([C@H]4CCN(C(=O)c5cc(C(F)(F)F)cc(C(F)(F)F)c5)[C@H](Cc5ccccc5)C4)CC3)C2)c2ccccc2)CC1 (some centres unmarked) [Compound 105]	63.1
CC(C)(C)OC(=O)N1CCC(N2CCN(C3CCN(C(=O)c4cc(C(F)(F)F)cc(C(F)(F)F)c4)C(Cc4ccc(Cl)c(Cl)c4)C3)CC2)C1 (single isomer, unassigned) [Compound 243]	200

The remaining lines, values ahead:

IC50 [nM]	SMILES
15.8	Cc1noc(C)c1C(=O)N1CCC(N2CCN([C@H]3CCN(C(=O)c4cc(C(F)(F)F)cc(C(F)(F)F)c4)[C@H](Cc4ccccc4)C3)CC2)C1 (some centres unmarked) [Compound 48]
50.1	O=C(CN1CCNCC1)N1CCC(N2CCN([C@H]3CCN(C(=O)c4cc(C(F)(F)F)cc(C(F)(F)F)c4)[C@H](Cc4ccccc4)C3)CC2)C1 (some centres unmarked) [Compound 201]
31.6	CC(C)(C)OC(=O)N1CCCC(C(=O)N2CCC(N3CCN([C@H]4CCN(C(=O)c5cc(C(F)(F)F)cc(C(F)(F)F)c5)[C@H](Cc5ccccc5)C4)CC3)C2)C1 (some centres unmarked) [Compound 229]
126	O=C(c1ccc(F)c(F)c1)N1CCC(N2CCN([C@H]3CCN(C(=O)c4cc(C(F)(F)F)cc(C(F)(F)F)c4)[C@H](Cc4ccccc4)C3)CC2)C1 (some centres unmarked) [Compound 20]
31.6	O=C(C1CCc2cc(F)ccc2O1)N1CCC(N2CCN([C@H]3CCN(C(=O)c4cc(C(F)(F)F)cc(C(F)(F)F)c4)[C@H](Cc4ccccc4)C3)CC2)C1 (some centres unmarked) [Compound 61]
20	COCCOCC(=O)N1CCC(N2CCN([C@H]3CCN(C(=O)c4cc(C(F)(F)F)cc(C(F)(F)F)c4)[C@H](Cc4ccccc4)C3)CC2)C1 (some centres unmarked) [Compound 390]
39.8	O=C(C1CCNC1)N1CCC(N2CCN([C@H]3CCN(C(=O)c4cc(C(F)(F)F)cc(C(F)(F)F)c4)[C@H](Cc4ccccc4)C3)CC2)C1 (some centres unmarked) [Compound 235]
251	O=C(C1CCOC1)N1CCC(N2CCN(C3CCN(C(=O)c4cc(C(F)(F)F)cc(C(F)(F)F)c4)C(Cc4ccccc4)C3)CC2)C1 (single isomer, unassigned) [Compound 129]
31.6	O=C(C1CCNCC1)N1CCC(N2CCN(C3CCN(C(=O)c4cc(C(F)(F)F)cc(C(F)(F)F)c4)C(Cc4ccccc4)C3)CC2)C1 (centres unmarked) [Compound 241]
25.1	O=C(CN1CCOCC1)N1CCC(N2CCN([C@H]3CCN(C(=O)c4cc(C(F)(F)F)cc(C(F)(F)F)c4)[C@H](Cc4ccccc4)C3)CC2)C1 (some centres unmarked) [Compound 197]
50.1	CN(C)CCN1CCC[C@H]1C(=O)N1CCC(N2CCN([C@H]3CCN(C(=O)c4cc(C(F)(F)F)cc(C(F)(F)F)c4)[C@H](Cc4ccccc4)C3)CC2)C1 (some centres unmarked) [Compound 185]
200	O=C(c1ccccc1)N1CCC(N2CCN([C@@H]3CCN(C(=O)c4cc(C(F)(F)F)cc(C(F)(F)F)c4)[C@H](Cc4ccccc4)C3)CC2)C1 (some centres unmarked) [Compound 136]
31.6	O=C(C1CCCNC1)N1CCC(N2CCN([C@H]3CCN(C(=O)c4cc(C(F)(F)F)cc(C(F)(F)F)c4)[C@H](Cc4ccccc4)C3)CC2)C1 (some centres unmarked) [Compound 240]
100	COC(=O)CCN1CCC(N2CCN(C3CCN(C(=O)c4cc(C(F)(F)F)cc(C(F)(F)F)c4)C(Cc4ccccc4)C3)CC2)C1 (centres unmarked) [Compound 80]
100	CC(=O)N1CCC[C@H]1C(=O)N1CCC(N2CCN([C@H]3CCN(C(=O)c4cc(C(F)(F)F)cc(C(F)(F)F)c4)[C@H](Cc4ccccc4)C3)CC2)C1 (some centres unmarked) [Compound 186]
50.1	O=C(C1CC1)N1CC[C@H](N2CCN([C@@H]3CCN(C(=O)c4cc(C(F)(F)F)cc(C(F)(F)F)c4)[C@@H](Cc4ccc(Cl)c(Cl)c4)C3)CC2)C1 [Compound 245]
126	O=C([C@@H]1CCCN1)N1CCC(N2CCN([C@H]3CCN(C(=O)c4cc(C(F)(F)F)cc(C(F)(F)F)c4)[C@H](Cc4ccccc4)C3)CC2)C1 (some centres unmarked) [Compound 144]
20	O=C(CN1CCCC1)N1CCC(N2CCN(C3CCN(C(=O)c4cc(C(F)(F)F)cc(C(F)(F)F)c4)C(Cc4ccccc4)C3)CC2)C1 (centres unmarked) [Compound 196]

The compounds below were run against T1, NK3 (Homo sapiens, UniProt P29371) (assay: Signal transduction (ST), intracellular Ca++ (FLIPR), NK3). Conditions: read-out: pIC50 NK3 (converted).
T1 sequence (P29371 1-465): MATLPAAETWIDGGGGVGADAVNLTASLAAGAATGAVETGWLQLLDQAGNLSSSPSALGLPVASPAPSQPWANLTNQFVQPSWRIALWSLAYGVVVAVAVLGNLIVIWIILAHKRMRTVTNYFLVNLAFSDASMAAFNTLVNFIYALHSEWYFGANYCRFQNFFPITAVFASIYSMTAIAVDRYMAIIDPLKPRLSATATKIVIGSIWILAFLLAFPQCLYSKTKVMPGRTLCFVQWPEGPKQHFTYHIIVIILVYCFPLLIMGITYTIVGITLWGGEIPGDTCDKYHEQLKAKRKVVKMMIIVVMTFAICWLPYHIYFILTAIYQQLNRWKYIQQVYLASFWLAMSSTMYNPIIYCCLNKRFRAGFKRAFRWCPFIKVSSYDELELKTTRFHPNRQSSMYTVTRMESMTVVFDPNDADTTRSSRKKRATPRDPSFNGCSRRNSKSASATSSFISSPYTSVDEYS
Assay type: cell-based
Experimental: [The procedure below names another target; the source lists this target under the same test.] as §1
The sigmoidal dose response curves were analysed by computerised curve-fitting, using the GraphPad Program. […] For antagonist responses the IC50-value was calculated using non-linear regression.
The last columns indicates—without being limited therefore—for which the compounds might be most suitable. Of course, since for some neurokinin receptors no data was determined, it is obvious that these compounds might be attributed to another suitable use.

SMILES	IC50 [nM]
O=C(c1cc(C(F)(F)F)cc(C(F)(F)F)c1)N1CCC(N2CCN(C3CCN(Cc4ccccc4)C3)CC2)CC1Cc1ccc(F)c(F)c1 (single isomer, unassigned) [Compound 223]	1580
O=C(c1cnccn1)N1CCC(N2CCN(C3CCN(C(=O)c4cc(C(F)(F)F)cc(C(F)(F)F)c4)C(Cc4ccc(F)c(F)c4)C3)CC2)C1 (single isomer, unassigned) [Compound 237]	3980
N#Cc1cccc(C(=O)N2CCC(N3CCN(C4CCN(C(=O)c5cc(C(F)(F)F)cc(C(F)(F)F)c5)C(Cc5ccccc5)C4)CC3)C2)c1 (single isomer, unassigned) [Compound 193]	501

The next lines start with the values.

IC50 [nM]	SMILES
2510	Cc1noc(C)c1C(=O)N1CCC(N2CCN([C@H]3CCN(C(=O)c4cc(C(F)(F)F)cc(C(F)(F)F)c4)[C@H](Cc4ccccc4)C3)CC2)C1 (some centres unmarked) [Compound 48]
2510	CC(C)(C)OC(=O)N1CCCC(C(=O)N2CCC(N3CCN([C@H]4CCN(C(=O)c5cc(C(F)(F)F)cc(C(F)(F)F)c5)[C@H](Cc5ccccc5)C4)CC3)C2)C1 (some centres unmarked) [Compound 229]
5010	O=C(c1ccc(F)c(F)c1)N1CCC(N2CCN([C@H]3CCN(C(=O)c4cc(C(F)(F)F)cc(C(F)(F)F)c4)[C@H](Cc4ccccc4)C3)CC2)C1 (some centres unmarked) [Compound 20]
6310	O=C(C1CCc2cc(F)ccc2O1)N1CCC(N2CCN([C@H]3CCN(C(=O)c4cc(C(F)(F)F)cc(C(F)(F)F)c4)[C@H](Cc4ccccc4)C3)CC2)C1 (some centres unmarked) [Compound 61]

— patent US7795261B2, “Substituted 1-piperidin-4-yl-4-pyrrolidin-3-yl-piperazine derivatives and their use as neurokinin antagonists” (Janssen Pharmaceutica NV, priority 2002, dated 2010)
